Experiments:
[1] = tested on: CLERK gene expression; test: CLERK::eGFP-GUS reporter expression in root meristem; format: in vivo, Arabidopsis thaliana; conditions: 1 μM CLE26, 5 min vs 60 min (Fig. S1E); compared with VISUAL assay
Excerpt: B overlay of PI fluorescence withGFP channel, in absence of GFPC overlay of GFP fluorescence withPI channel, in absence of PI […]
Figure S1 – Supplemental figure. (A) Phylogenetic tree of the class II LRR-RKs of Arabidopsis. (B) Col-0 wild type control root meristem, […]
5 days old, confocal microscopy. Left: GFP channel, yellow, note some background on the root edges; Right: Overlay of GFP channel with […]
PI cell wall staining (cyan). (C) CLERK-GFP fusion protein expression pattern, confocal microscopy, imaged without PI cell wall staining.
Left: GFP fluorescence, yellow; Right: Overlay of GFP fluorescence with PI channel, note increased background. (D) BAM3-CITRINE fusion […]
protein expression pattern in a clerk mutant root meristem, confocal microscopy. Left: CITRINE fluorescence, yellow; Right: Overlay of CITRINE […]
fluorescence with PI cell wall staining (cyan). Asterisks indicate protophloem sieve element cell files. (E) CLERK gene expression in response […]
to CLE26 treatment, as monitored by GFP fluorescence in the root meristem of a Col-0 seedling that carried a CLERK::eGFP-GUS transgene, […]
confocal microscopy. The same root is shown at the beginning and end of a time course. GFP fluorescence, yellow; […]

[2] = tested on: root meristem protophloem; conditions: BAM3 necessary; ref Depuydt et al., 2013; Hazak et al., 2017; Kang and Hardtke, 2016; cited from earlier work
Excerpt: The endogenous CLAVATA3/EMBRYO SURROUNDING REGION (CLE) peptides of plants are secreted as propeptides and processed to yield bioactive 12-14 amino acid long ligands ([Cock and McCormick, 2001]; [Ito et al., 2006]; [Kondo et al., 2006]). The Arabidopsis thaliana genome contains 32 CLE genes, which encode 27 distinct CLE peptides ([Goad et al., 2016]; [Ito et al., 2006]; [Strabala et al., 2006]). Exogenous application of chemically synthesized CLE peptides at nanomolar concentrations frequently suppresses Arabidopsis root growth in tissue culture ([Depuydt et al., 2013]; [Fiers et al., 2005]; [ ...

[3] = tested on: BAM3 ectodomain with NIK1/2/3 ectodomains; test: Analytical size-exclusion chromatography, BAM3 + NIK1/2/3 ectodomains; format: binding, Arabidopsis thaliana; conditions: Fig. S3D; 50 µM peptide; pH 5.0
Experimental: (§1) Isolation of recombinant proteins and analytical gel filtrations were carried out as described previously ([Hazak et al., 2017]) with small adjustments. The coding sequences for BAM1-ECD (amino acids 20-637), BAM3-ECD (30-651), PXY-ECD (30-647), NIK1-ECD (32-248), NIK2-ECD (33-248), NIK3-ECD (26-238), CLERK-ECD (28-236) and At5G63710-ECD (51-224) were amplified from Arabidopsis thaliana cDNA using PfuX7 polymerase. All ECD-coding sequences were then cloned into a modified pFAST-BAC1 vector (Geneva Biotech) by GIBSON cloning, resulting in the addition of the azurocidin signal peptide sequence to the 5′-end, and of a 2×-STREP-9×HIS tag to the 3′-end of the ECD sequences. These plasmids, after being confirmed by sequencing, were transformed into Escherichia coli DH10MultiBac (Geneva Biotech) followed by the extraction of the resulting bacmids. Transfection of the bacmids into Spodoptera frugiperda Sf9 cells with Profectin (AB Vector) was carried out to produce and amplify the respective virus. Recombinant secreted expression of the proteins was carried out by addition of virus to Trichoplusia ni Tnao38 cells to reach a viral multiplicity of 1 and incubation of the cells for 3 days. […] Concentrations of the pure proteins were assessed by measuring their absorbance at 280 nm (NanoDrop Lite; Thermo Scientific) and subsequent correction with their respective extinction coefficient. […]

[4] = tested on: BAM3 ectodomain with CLERK/At5g63710 ectodomains; test: Analytical size-exclusion chromatography, BAM3 + CLERK/At5g63710 ectodomains; format: binding, Arabidopsis thaliana; conditions: 50 µM peptide
Experimental: as §1

[5] = tested on: Arabidopsis root growth; conditions: ref Hazak et al., 2017; cited from earlier work
Excerpt: The incapacity of clerk loss-of-function second site mutation to suppress the brx phenotype (unlike second site bam3 or clv2-crn loss of function) is also of interest with respect to the role of CLE peptide signaling in the spatiotemporal progression of protophloem sieve element differentiation. Resistance of clerk mutants against root-active CLE peptides as well as CLERK expression in early protophloem reiterate the key role of the protophloem in CLE sensing in the root ([Hazak et al., 2017]). Yet not all CLE peptides have an equally strong effect on root growth, which correlates with their i ...

Sequence	CLERK downregulation in the root meristem [1]	Effect on protophloem sieve element differentiation [2]	Elution of BAM3 ectodomain with NIK1/2/3 ectodomains [3]	Elution of BAM3 ectodomain with CLERK/At5g63710 ectodomains ([4]; Fig. S3A, pH 5.0)	Peptide-induced binding of CLERK and BAM3 ectodomains ([4]; gel filtration, 20 mM citrate (pH 5.0), 150 mM NaCl)	Relative strength as root-active CLE peptide [5]
RKVPRGPDPIHN [CLE26]	an equally strong effect was not observed in the root meristem	–	–	–	–	–
RRVRRGSDPIHN [CLE45]	–	suppression of protophloem sieve element differentiation	elute as monomers	elute as monomers	did not observe CLE45-induced binding	strongest root-active CLE peptide
